Laboratory results from ChEMBL document CHEMBL4616652, “Bioactive Polyhydroxanthones from Penicillium purpurogenum” (J Nat Prod, 2020).
Values after ≈ are worked out from the molar mass of the structure shown. Where a name gives a salt, the structure may show the parent alone.

Legend:
A549 = test: Cytotoxicity against human A549 cells after 72 hrs by MTT assay; type: functional, cell-based; details: A549, 72 h
HeLa = test: Cytotoxicity against human HeLa cells after 72 hrs by MTT assay; type: functional, cell-based
HepG2 = test: Cytotoxicity against human HepG2 cells after 72 hrs by MTT assay; type: functional, cell-based; details: HepG2, 72 h
Vero = test: Cytotoxicity against African green monkey Vero cells incubated for 72 hrs by MTT assay; type: cell-based; details: Chlorocebus sabaeus
Staphylococcus aureus [1] = test: Antimicrobial activity against methicillin-resistant Staphylococcus aureus incubated for 7 hrs by alamar Blue assay; type: functional
Staphylococcus aureus [2] = test: Antimicrobial activity against Staphylococcus aureus incubated for 7 hrs by alamar Blue assay; type: functional
Shigella dysenteriae = test: Antimicrobial activity against Shigella dysenteriae incubated for 7 hrs by alamar Blue assay; type: functional

SMILES | IC50 (A549) [µM] | IC50 (HeLa) [µM] | IC50 (HepG2) [µM] | IC50 (Vero) [µM] | MIC (Staphylococcus aureus [1]) [µg/mL] | MIC (Staphylococcus aureus [2]) [µg/mL] | MIC (Shigella dysenteriae) [µg/mL]
C[C@@]12O[C@@H]1C(O)=C1C(=O)c3c(ccc(-c4ccc5c(c4O)C(=O)C4=C(O)[C@H]6O[C@@]6(C)[C@H](OC(=O)CCC(=O)O)[C@]4(C)O5)c3O)O[C@@]1(C)[C@H]2OC(=O)CCC(=O)O | > 50 | > 50 | > 50 | > 50 | 100 (≈ 128 µM) | 12.5 (≈ 16.1 µM) | 100 (≈ 128 µM)
COC(=O)CCC(=O)O[C@H]1[C@]2(C)O[C@@H]2C(O)=C2C(=O)c3c(ccc(-c4ccc5c(c4O)C(=O)C4=C(O)[C@H]6O[C@@]6(C)[C@H](OC(=O)CCC(=O)OC)[C@]4(C)O5)c3O)O[C@]21C | 0.6 | 0.3 | 0.5 | > 50 | 0.4 (≈ 0.496 µM) | 0.4 (≈ 0.496 µM) | 6.3 (≈ 7.81 µM)
C[C@@H]1C[C@@H](O)[C@@]2(O)C(=O)c3c(O)cccc3O[C@]2(C)[C@H]1O | > 50 | > 50 | > 50 | > 50 | – | > 100 | > 100
C[C@@]12O[C@@H]1[C@H](O)[C@]1(O)C(=O)c3c(O)cccc3O[C@@]1(C)[C@H]2O | > 50 | > 50 | > 50 | > 50 | – | > 100 | > 100
C[C@@]12O[C@]3(C(=O)c4c(O)cccc4O[C@@]3(C)[C@H]1O)[C@@H](O)[C@H]2O | > 50 | > 50 | > 50 | > 50 | – | > 100 | > 100
CC1=C[C@H](O)[C@]2(O)C(=O)c3c(O)cccc3O[C@@]2(C)[C@H]1OC(=O)CCC(=O)O | > 50 | > 50 | > 50 | > 50 | – | > 100 | > 100
COC(=O)CCC(=O)O[C@H]1[C@]2(C)O[C@@H]2C(O)=C2C(=O)c3c(ccc(-c4ccc5c(c4O)C(=O)C4=C(O)[C@H]6O[C@@]6(C)[C@H](OC(=O)CCC(=O)O)[C@]4(C)O5)c3O)O[C@]21C | 32 | 7.6 | 4.8 | > 50 | 12.5 (≈ 15.8 µM) | 3.1 (≈ 3.91 µM) | 6.3 (≈ 7.95 µM)
CC1=C[C@H](O)[C@]2(O)C(=O)c3c(O)cccc3O[C@@]2(C)[C@H]1O | > 50 | > 50 | > 50 | > 50 | – | > 100 | > 100
COc1cccc2c1C(=O)c1c(O)c3c(c(O)c1C2=O)C[C@@](O)(C(=O)CO)C[C@@H]3O[C@H]1C[C@H](N)[C@H](O)[C@H](C)O1 [DOXORUBICIN HYDROCHLORIDE] | 0.7 | 0.5 | – | – | – | – | –
NC[C@H]1O[C@H](O[C@H]2[C@H](O)[C@@H](O[C@H]3O[C@H](CO)[C@@H](O)[C@H](N)[C@H]3O)[C@H](N)C[C@@H]2N)[C@H](O)[C@@H](O)[C@@H]1O [KANAMYCIN] | – | – | – | – | > 100 | 0.8 (≈ 1.65 µM) | 0.2 (≈ 0.413 µM)
CN[C@H](CC(C)C)C(=O)N[C@H]1C(=O)N[C@@H](CC(N)=O)C(=O)N[C@H]2C(=O)N[C@H]3C(=O)N[C@H](C(=O)N[C@H](C(=O)O)c4cc(O)cc(O)c4-c4cc3ccc4O)[C@H](O)c3ccc(c(Cl)c3)Oc3cc2cc(c3O[C@@H]2O[C@H](CO)[C@@H](O)[C@H](O)[C@H]2O[C@H]2C[C@](C)(N)[C@H](O)[C@H](C)O2)Oc2ccc(cc2Cl)[C@H]1O [VANCOMYCIN] | – | – | – | – | 0.8 (≈ 0.552 µM) | – | –
